Assay results as given in patent publication EP0538305B1, “P[…] F[…] RELATED GUANINE DERIVATIVES FOR THE TREATMENT OF THE HIV-1 INFECTIONS” (BEECHAM GROUP PLC, priority 1990, dated 1992).

Biological target: T1, HIV-1 reverse transcriptase (Human immunodeficiency virus type 1 group M subtype B, UniProt P04585)
T1 construct: equivalent to 2.85nM for an equimolar mixture of p66 and p51 polypeptides; host or cells: E. coli
Experiment: Assay for reverse transcriptase activity (incorporation of radioactive dGMP from [3H]dGTP into Poly (rC). p(dG)12-18)
Type: biochemical, human immunodeficiency virus type 1 (HIV-1)
Conditions: for IC50: approximate, from plot of % inhibition against concentration of inhibitor, 1.02µM [3H]dGTP, 65 minutes at 37°C
Experimental: Chemicals [^3H]dGTP (16.3 Ci/mmol) was purchased from Amersham International, Aylesbury, U.K. Template primer Poly (rC). p(dG)12-18 (1:1, rC:dG ratio) and 2',3'-dideoxyguanosine-5-triphosphate (ddGTP) were obtained from Pharmacia Ltd., Milton Keynes, U.K. Penciclovir triphosphate (PCV-TP) was prepared in the laboratories of SmithKline Beecham Pharmaceuticals, Great Burgh, United Kingdom.
Reverse transcriptase Purified, E. coli expressed HIV-1 reverse transcriptase (RT) was supplied by the Protein Biochemistry Department of SmithKline Beecham Pharmaceuticals, Upper Merion, U.S.A. The enzyme was stored and diluted in a buffer containing 50mM Tris-HCl (pH 8.0), 10mM Hepes, 110mM NaCl, 5.7mM DTT, 0.3mM EDTA, 0.06% Triton X-100, 50% glycerol.
Assay for reverse transcriptase activity The reaction mixture for the HIV-1 RT assay contained in a volume of 120µl: 33mM Tris HCl (pH 8.0), 100mM KCl, 3.3mM MgCl2, 3.3mM dithiothreitol, 0.2mM glutathione, 0.33mM EGTA (ethylene glycol-bis-(β-aminoethyl ether) N,N-tetra acetic acid), 0.033% Triton X-100, 1.02µM [^3H]dGTP, 0-12.39µM inhibitors ddGTP, PCV-TP, 0.3 A260 units/ml Poly (rC). p(dG)12-18 and 167ng/ml RT (equivalent to 2.85nM for an equimolar mixture of p66 and p51 polypeptides). The reaction mixtures without RT were prepared in the microwells of a 96-well plate and preincubated at 37°C before the reactions were started by the addition of 20µl of the enzyme solution. The plates were then incubated for 65 minutes at 37°C. The incorporation rate was linear for the uninhibited control reaction over this time period. The reactions were terminated by the addition of 40µl of EDTA solution (0.2M, pH7.0). The individual reaction mixtures were transferred to a DEAE filter mat (1205-405, LKB Wallac, Finland), prewetted with 0.3M NaCl/0.03M Na citrate, using a cell harvester (1295-001, LKB Wallac). The filter mat was washed three times in the NaCl/Na citrate buffer and then once in 95% ethanol. Scintillation fluid (Beta Plate Scint, LKB Wallac) was added to the dried filter, and the reaction mixtures assayed for incorporation of radioactive dGMP in an LKB 1205 Beta Plate Liquid Scintillation Counter.

## Nc1nc2c(ncn2[C@H]2CC[C@@H](COP(=O)(O)OP(=O)(O)OP(=O)(O)O)O2)c(=O)[nH]1 [ddGTP, 2',3'-dideoxyguanosine-5-triphosphate, reference compound]
1 nM ddGTP
  inhibition at 0.001 µM: 0%
1 nM ddGTP, uninhibited control 117892
  Incorporation of dGMP: 119726 c.p.m.
10 nM ddGTP
  inhibition at 0.01 µM: 23.7%
10 nM ddGTP, uninhibited control 117892
  Incorporation of dGMP: 89949 c.p.m.
25 nM ddGTP
  inhibition at 0.025 µM: 50.2%
25 nM ddGTP, uninhibited control 117892
  Incorporation of dGMP: 58703 c.p.m.
50 nM ddGTP
  inhibition at 0.05 µM: 70.2%
50 nM ddGTP, uninhibited control 117892
  Incorporation of dGMP: 35091 c.p.m.
75 nM ddGTP
  inhibition at 0.075 µM: 77.8%
75 nM ddGTP, uninhibited control 117892
  Incorporation of dGMP: 26132 c.p.m.
100 nM ddGTP
  inhibition at 0.1 µM: 81.2%
100 nM ddGTP, uninhibited control 117892
  Incorporation of dGMP: 22161 c.p.m.
  IC50: 25 nM

## Nc1nc2c(ncn2CCC(CO)COP(=O)(O)OP(=O)(O)OP(=O)(O)O)c(=O)[nH]1 (racemic) [PCV-TP, Penciclovir triphosphate]
0.124 µM PCV-TP
  inhibition at 0.124 µM: 4%
0.124 µM PCV-TP, uninhibited control 88892
  Incorporation of dGMP: 85313 c.p.m.
1.24 µM PCV-TP
  inhibition at 1.24 µM: 21.2%
1.24 µM PCV-TP, uninhibited control 88892
  Incorporation of dGMP: 70061 c.p.m.
3.10 µM PCV-TP
  inhibition at 3.1 µM: 41.7%
3.10 µM PCV-TP, uninhibited control 88892
  Incorporation of dGMP: 51866 c.p.m.
6.19 µM PCV-TP
  inhibition at 6.19 µM: 63%
6.19 µM PCV-TP, uninhibited control 88892
  Incorporation of dGMP: 32921 c.p.m.
9.29 µM PCV-TP
  inhibition at 9.29 µM: 70.3%
9.29 µM PCV-TP, uninhibited control 88892
  Incorporation of dGMP: 26436 c.p.m.
12.39 µM PCV-TP
  inhibition at 12.39 µM: 73.2%
12.39 µM PCV-TP, uninhibited control 88892
  Incorporation of dGMP: 23844 c.p.m.
  IC50: 4300 nM
